Measured values: patent publication US20080312164A1 (priority 2006, published 2008)
Read-outs that look alike come from different tables or passages of the source. Marks after values point to notes of the source that are not given here.

Legend:
HCT-116 cells [1] = settings: literature (27, 35); cited from earlier work
several cell lines = settings: reported; cited from earlier work
MCF7 cells [2] = assay: Calcein AM cytotoxicity assay, MCF7; format: cell-based; settings: Homo sapiens; MCF7, Calcein AM, 72 h; read-out: IC50
Description: (§1) Five serial 1:2 dilutions were made with anhydrous DMSO at 100× the final concentration used in the assay.

[3] = tested on: NmuMG mouse mammary normal epithelial cells; assay: Cell Titer-Glo cytotoxicity assay, NmuMG; format: cell-based; settings: Mus musculus, Epithelial cell; NmuMG, Cell Titer-Glo, 72 h; read-out: IC50
Description: as §1

NmuMG Cell Line = assay: Cytotoxicity in NmuMG cell line, summary table (assay not stated); format: cell-based; settings: Mus musculus, assay not stated (mostly Cell Titer-Glo values; Calcein AM values for 20, 24, 39)
Description: as §1

Hep3B cells [4] = assay: Calcein AM cytotoxicity assay, Hep3B; format: cell-based; settings: Homo sapiens, Calcein AM, 72 h, read-out: IC50
Description: as §1

SK-OV-3 cells [5] = assay: Cell Titer-Glo cytotoxicity assay, SK-OV-3; format: cell-based; settings: Homo sapiens; SK-OV-3, Cell Titer-Glo, 72 h; read-out: IC50
Description: as §1

Du145 cells [6] = assay: Cell Titer-Glo cytotoxicity assay, Du145; format: cell-based; settings: Homo sapiens, DU-145; Du145, Cell Titer-Glo, 72 h; read-out: IC50
Description: as §1

HCT-116 cells [7] = assay: Calcein AM cytotoxicity assay, HCT-116; format: cell-based; settings: Homo sapiens; HCT-116, Calcein AM, 72 h; read-out: IC50
Description: as §1

Hep3B cells [8] = assay: Cell Titer-Glo cytotoxicity assay, Hep3B; format: cell-based; settings: Homo sapiens, Cell Titer-Glo, 72 h, read-out: IC50
Description: as §1

HT-29 cells = assay: MTT cytotoxicity assay, HT-29; format: cell-based; settings: Homo sapiens; HT-29, MTT, 24 h; read-out: IC50
[9] = tested on: NmuMG mouse mammary normal epithelial cells; assay: Calcein AM cytotoxicity assay, NmuMG; format: cell-based; settings: Epithelial cell, NmuMG, Calcein AM, 72 h, read-out: IC50
Description: as §1

MCF7 cells [10] = assay: Cell Titer-Glo cytotoxicity assay, MCF7; format: cell-based, human; settings: Homo sapiens; MCF7, Cell Titer-Glo, 72 h; read-out: IC50
Description: as §1

SK-OV-3 cells [11] = assay: Calcein AM cytotoxicity assay, SK-OV-3; format: cell-based; settings: Homo sapiens; SK-OV-3, Calcein AM, 72 h; read-out: IC50
Description: as §1

human cancer cell lines = assay: Cytotoxicity across the panel of human cancer cell lines (average, high-throughput assays); format: cell-based; settings: for Cancerous Average IC50 / Average IC50 in Cancer Cell Lines / IC50: average across eight human cancer cell lines, MTT (HT-29) values excluded; for IC50: read-out: Cancerous Average IC50 / Average IC50 in Cancer Cell Lines
Description: as §1

NCI-H460 cells [12] = assay: Cell Titer-Glo cytotoxicity assay, NCI-H460; format: cell-based, human; settings: Homo sapiens; NCI-H460, Cell Titer-Glo, 72 h; read-out: IC50
Description: as §1

NCI/ADR RES cells [13] = assay: Cell Titer-Glo cytotoxicity assay, NCI/ADR-RES; format: cell-based, human; settings: Homo sapiens; NCI/ADR-RES, Cell Titer-Glo, 72 h; read-out: IC50
Description: as §1

SF-268 cells [14] = assay: Cell Titer-Glo cytotoxicity assay, SF-268; format: cell-based; settings: Homo sapiens; SF-268, Cell Titer-Glo, 72 h; read-out: IC50
Description: as §1

HCT-116 cells [15] = assay: Cell Titer-Glo cytotoxicity assay, HCT-116; format: cell-based; settings: Homo sapiens; HCT-116, Cell Titer-Glo, 72 h; read-out: IC50
Description: as §1

Du145 cells [16] = assay: Calcein AM cytotoxicity assay, Du145; format: cell-based; settings: Homo sapiens, DU-145; Du145, Calcein AM, 72 h; read-out: IC50
Description: as §1

NCI/ADR RES cells [17] = assay: Calcein AM cytotoxicity assay, NCI/ADR-RES; format: cell-based; settings: Homo sapiens, Calcein AM, 72 h, read-out: IC50
Description: as §1

NCI-H460 cells [18] = assay: Calcein AM cytotoxicity assay, NCI-H460; format: cell-based; settings: Homo sapiens; NCI-H460, Calcein AM, 72 h; read-out: IC50
Description: as §1

SF-268 cells [19] = assay: Calcein AM cytotoxicity assay, SF-268; format: cell-based; settings: Homo sapiens; SF-268, Calcein AM, 72 h; read-out: IC50
Description: as §1

| Compound | IC50 (MCF7 cells [2]) | IC50 [3] | IC50 (NmuMG Cell Line) | IC50 (Hep3B cells [4]) | IC50 (SK-OV-3 cells [5]) | IC50 (Du145 cells [6]) | IC50 (HCT-116 cells [7]) | IC50 (Hep3B cells [8]) | IC50 (HT-29 cells) | IC50 [9] | IC50 (MCF7 cells [10]) | IC50 (SK-OV-3 cells [11]) | IC50 (human cancer cell lines) | IC50 (NCI-H460 cells [12]) | IC50 (NCI/ADR RES cells [13]) | IC50 (SF-268 cells [14]) | IC50 (HCT-116 cells [15]) | IC50 (Du145 cells [16]) | IC50 (NCI/ADR RES cells [17]) | IC50 (NCI-H460 cells [18]) | other results |
| --- | --- | --- | --- | --- | --- | --- | --- | --- | --- | --- | --- | --- | --- | --- | --- | --- | --- | --- | --- | --- | --- |
| O=C(CCCCCCC(=O)Nc1cccnc1)NO [Compound 7, pyroxamide] | – | – | – | – | – | – | – | – | – | – | – | – | – | – | – | – | – | – | – | – | IC50 (HCT-116 cells [1]): 6.5 ± 0.5 µM; IC50 (several cell lines): 1 to 20 µM |
| S=C=NC1CC1 [Compound 17, isothiocyanatocyclopropane] | 15.1 µM | > 200 µM | > 200 µM | > 30 µM | > 50 µM | > 50 µM | > 50 µM | > 30 µM | > 50 µM | > 200 µM | 12.6 µM | > 30 µM | > 50 µM | > 50 µM | > 50 µM | > 50 µM | > 50 µM | 29.7 µM | > 50 µM | > 50 µM | Cancerous Average IC50 / Average IC50 in Cancer Cell Lines (human cancer cell lines): >50.00^c μM; IC50 (SF-268 cells [19]): > 50 µM |
| S=C=Nc1ccccc1 [Compound 19, 1-isothiocyanatobenzene] | > 50 µM | > 200 µM | > 200 µM | > 50 µM | > 50 µM | > 50 µM | > 20 µM | > 20 µM | > 50 µM | > 200 µM | > 50 µM | > 50 µM | >50.00 µM | > 20 µM | > 20 µM | > 50 µM | > 20 µM | > 50 µM | > 20 µM | > 50 µM | IC50 (SF-268 cells [19]): 2.32 µM |
| S=C=Nc1ccc(Br)cc1 [Compound 20, 1-bromo-4-isothiocyanatobenzene] | 26.7 µM | 21.4 µM | 183 µM | > 50 µM | 19.6 µM | 41.4 µM | > 50 µM | > 50 µM | > 50 µM | 183 µM | 17.1 µM | > 50 µM | > 50 µM | 10.4 µM | 23.1 µM | 24.9 µM | 21.6 µM | > 50 µM | > 50 µM | > 50 µM | Cancerous Average IC50 / Average IC50 in Cancer Cell Lines (human cancer cell lines): >50.00^e μM; IC50 (SF-268 cells [19]): > 50 µM |
| S=C=NCc1ccco1 [Compound 24, 2-(isothiocyanatomethyl)furan] | > 50 µM | > 200 µM | 151 µM | > 30 µM | > 50 µM | > 50 µM | > 50 µM | > 30 µM | > 50 µM | 151 µM | > 50 µM | > 30 µM | > 50 µM | > 50 µM | > 50 µM | > 50 µM | > 50 µM | > 50 µM | 21.6 µM | > 50 µM | IC50 (SF-268 cells [19]): > 50 µM |
| S=C=NCc1ccccc1-c1ccccc1 [Compound 33, 1-(isothiocyanatomethyl)-2-phenylbenzene] | 1.6 µM | 80.1 µM | 180 µM | 10.6 µM | 5.01 µM | 5.25 µM | 5.56 µM | 4.24 µM | 39.9 µM | < 12.5 µM | 3.63 µM | 5.93 µM | 4.96 µM | 8.95 µM | 4.11 µM | 6.39 µM | 4.64 µM | 3.16 µM | 4.12 µM | 6.44 µM | selectivity for cancer cells over NmuMG cells (human cancer cell lines; IC50 in NmuMG versus average IC50 in cancer cell lines): 36.3 fold; further fold increase in potency from multiple phenyl rings (human cancer cell lines; average IC50 compared with single-ring 23 and 38): ~2 fold; IC50 (SF-268 cells [19]): 4.79 µM |
| Cc1c(N=C=S)c(=O)n(-c2ccccc2)n1C [Compound 37, 4-isothiocyanato-2,3-dimethyl-1-phenyl-1,2-dihydropyrazol-5-one] | > 50 µM | > 200 µM | > 200 µM | > 50 µM | > 50 µM | > 50 µM | > 50 µM | > 50 µM | > 50 µM | > 200 µM | > 50 µM | > 50 µM | > 50 µM | > 50 µM | > 50 µM | > 50 µM | > 50 µM | > 50 µM | > 50 µM | > 50 µM | IC50 (SF-268 cells [19]): > 50 µM |
| S=C=NCCC1=CCCCC1 [Compound 39, 1-(2-isothiocyanatoethyl)cyclohex-1-ene] | 27.5 µM | > 200 µM | 13 µM | 28.5 µM | 24.1 µM | 18.6 µM | 19 µM | 16.1 µM | 45.3 µM | 13 µM | 19.8 µM | 19.5 µM | 18.3 µM | 36.4 µM | 26.9 µM | 13.6 µM | 16.4 µM | 25.5 µM | 12.2 µM | 28.6 µM | IC50 (SF-268 cells [19]): 3.89 µM |
